Measured values as given in US20130053381A1, “2,4-DIOXO-1,4-DIHYDRO-2H-QUINAZOLIN-3-YL-SULFONAMIDE DERIVATIVES” (NOVARTIS AG, priority 2010, published 2013).

Tested on: OF1 mice
Test: Maximal electroshock test (MES Test)
Type: in vivo
Conditions: Mus musculus, po, pre-treatment time −1 h, read-out: %-Protection; for responders at 50 mg/kg: p.o.; for responders at 25 mg/kg: p.o. (footnote b)
Procedure, shortened: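 Compound given p.o. (typically 50 mg/kg) 1 h before tonic-clonic convulsions were induced via temporal electrodes (50 Hz, 18 mA, 0.2 s); seizure lasting 3 s or less counted as protection. Read-out is percent protected of five mice per condition; ED50 calculated, blood exposure sampled after shock.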

CCCOC(=O)N(n1c(=O)[nH]c2cc(C(F)(F)F)c(-c3ccnn3C(C)C)cc2c1=O)S(C)(=O)=O [Example 5.07, [6-(2-Isopropyl-2H-pyrazol-3-yl)-2,4-dioxo-7-trifluoromethyl-1,4-dihydro-2H-quinazolin-3-yl]-methanesulfonyl-carbamic acid propyl ester]
responders at 50 mg/kg: 40%

CCCCOC(=O)N(n1c(=O)[nH]c2cc(C(F)(F)F)c(-c3ccnn3C(C)C)cc2c1=O)S(C)(=O)=O [Example 5.08, [6-(2-Isopropyl-2H-pyrazol-3-yl)-2,4-dioxo-7-trifluoromethyl-1,4-dihydro-2H-quinazolin-3-yl]-methanesulfonyl-carbamic acid butyl ester]
responders at 50 mg/kg: 100%

CC(C)COC(=O)N(n1c(=O)[nH]c2cc(C(F)(F)F)c(-c3ccnn3C(C)C)cc2c1=O)S(C)(=O)=O [Example 5.09, [6-(2-Isopropyl-2H-pyrazol-3-yl)-2,4-dioxo-7-trifluoromethyl-1,4-dihydro-2H-quinazolin-3-yl]-methanesulfonyl-carbamic acid isobutyl ester]
responders at 50 mg/kg: 40%

COCCOC(=O)N(n1c(=O)[nH]c2cc(C(F)(F)F)c(-c3ccnn3C(C)C)cc2c1=O)S(C)(=O)=O [Example 5.10, [6-(2-Isopropyl-2H-pyrazol-3-yl)-2,4-dioxo-7-trifluoromethyl-1,4-dihydro-2H-quinazolin-3-yl]-methanesulfonyl-carbamic acid 2-methoxy-ethyl ester]
responders at 50 mg/kg: 20%

CCOC(=O)CCCC(=O)N(n1c(=O)[nH]c2cc(C(F)(F)F)c(-c3ccnn3C(C)C)cc2c1=O)S(C)(=O)=O [Example 5.11, 5-{[6-(2-Isopropyl-2H-pyrazol-3-yl)-2,4-dioxo-7-trifluoromethyl-1,4-dihydro-2H-quinazolin-3-yl]-methanesulfonyl-amino}-5-oxo-pentanoic acid ethyl ester]
responders at 50 mg/kg: 40%

CCOC(=O)CC(=O)N(n1c(=O)[nH]c2cc(C(F)(F)F)c(-c3ccnn3C(C)C)cc2c1=O)S(C)(=O)=O [Example 5.12, 3-{[6-(2-Isopropyl-2H-pyrazol-3-yl)-2,4-dioxo-7-trifluoromethyl-1,4-dihydro-2H-quinazolin-3-yl]-methanesulfonyl-amino}-3-oxo-propionic acid ethyl ester]
responders at 50 mg/kg: 40%

CSCCC(=O)N(n1c(=O)[nH]c2cc(C(F)(F)F)c(-c3ccnn3C(C)C)cc2c1=O)S(C)(=O)=O [Example 5.13, N-[6-(2-Isopropyl-2H-pyrazol-3-yl)-2,4-dioxo-7-trifluoromethyl-1,4-dihydro-2H-quinazolin-3-yl]-N-(3-methylsulfanyl-propionyl)-methanesulfonamide]
responders at 50 mg/kg: 40%

CC(=O)N(n1c(=O)[nH]c2cc(C(F)F)c(-c3ccnn3C(C)C)cc2c1=O)S(C)(=O)=O [Example 6.01, N-Acetyl-N-[7-difluoromethyl-6-(2-isopropyl-2H-pyrazol-3-yl)-2,4-dioxo-1,4-dihydro-2H-quinazolin-3-yl]-methanesulfonamide]
responders at 50 mg/kg: 40%
responders at 25 mg/kg: 20%

CCCC(=O)N(n1c(=O)[nH]c2cc(C(F)F)c(-c3ccnn3C(C)C)cc2c1=O)S(C)(=O)=O [Example 6.02, N-Butyryl-N-[7-difluoromethyl-6-(2-isopropyl-2H-pyrazol-3-yl)-2,4-dioxo-1,4-dihydro-2H-quinazolin-3-yl]-methanesulfonamide]
responders at 50 mg/kg: 40%
responders at 25 mg/kg: 0%

CCCCC(=O)N(n1c(=O)[nH]c2cc(C(F)F)c(-c3ccnn3C(C)C)cc2c1=O)S(C)(=O)=O [Example 6.03, N-[7-Difluoromethyl-6-(2-isopropyl-2H-pyrazol-3-yl)-2,4-dioxo-1,4-dihydro-2H-quinazolin-3-yl]-N-pentanoyl-methanesulfonamide]
responders at 50 mg/kg: 40%
responders at 25 mg/kg: 0%

CCCOC(=O)N(n1c(=O)[nH]c2cc(C(F)F)c(-c3ccnn3C(C)C)cc2c1=O)S(C)(=O)=O [Example 6.04, [7-Difluoromethyl-6-(2-isopropyl-2H-pyrazol-3-yl)-2,4-dioxo-1,4-dihydro-2H-quinazolin-3-yl]-methanesulfonyl-carbamic acid propyl ester]
responders at 50 mg/kg: 20%
responders at 25 mg/kg: 0%

CCC(=O)N(n1c(=O)[nH]c2cc(C(F)F)c(-c3ccnn3C(C)C)cc2c1=O)S(C)(=O)=O [Example 6.05, N-[7-Difluoromethyl-6-(2-isopropyl-2H-pyrazol-3-yl)-2,4-dioxo-1,4-dihydro-2H-quinazolin-3-yl]-N-propionyl-methanesulfonamide]
responders at 50 mg/kg: 80%
responders at 25 mg/kg: 60%

CCOC(=O)N(n1c(=O)[nH]c2cc(C(F)F)c(-c3ccnn3C(C)C)cc2c1=O)S(C)(=O)=O [Example 6.06, [7-Difluoromethyl-6-(2-isopropyl-2H-pyrazol-3-yl)-2,4-dioxo-1,4-dihydro-2H-quinazolin-3-yl]-methanesulfonyl-carbamic acid ethyl ester]
responders at 50 mg/kg: 60%
responders at 25 mg/kg: 20%

COCCOC(=O)N(n1c(=O)[nH]c2cc(C(F)F)c(-c3ccnn3C(C)C)cc2c1=O)S(C)(=O)=O [Example 6.07, [7-Difluoromethyl-6-(2-isopropyl-2H-pyrazol-3-yl)-2,4-dioxo-1,4-dihydro-2H-quinazolin-3-yl]-methanesulfonyl-carbamic acid 2-methoxy-ethyl ester]
responders at 50 mg/kg: 40%

Cc1nccn1-c1cc2c(=O)n(NS(C)(=O)=O)c(=O)[nH]c2cc1C(F)(F)F [Example 7.0, N-[6-(2-Methyl-imidazol-1-yl)-2,4-dioxo-7-trifluoromethyl-1,4-dihydro-2H-quinazolin-3-yl]-methanesulfonamide]
responders at 50 mg/kg: 0%

CCOC(=O)N(n1c(=O)[nH]c2cc(C(F)(F)F)c(-n3ccnc3C)cc2c1=O)S(C)(=O)=O [Example 7.01, Methanesulfonyl-[6-(2-methyl-imidazol-1-yl)-2,4-dioxo-7-trifluoromethyl-1,4-dihydro-2H-quinazolin-3-yl]-carbamic acid ethyl ester]
responders at 50 mg/kg: 40%

CCCC(=O)N(n1c(=O)[nH]c2cc(C(F)(F)F)c(-n3ccnc3C)cc2c1=O)S(C)(=O)=O [Example 7.02, N-Butyryl-N-[6-(2-methyl-imidazol-1-yl)-2,4-dioxo-7-trifluoromethyl-1,4-dihydro-2H-quinazolin-3-yl]-methanesulfonamide]
responders at 50 mg/kg: 20%

CCCOC(=O)N(n1c(=O)[nH]c2cc(C(F)(F)F)c(-n3ccnc3C)cc2c1=O)S(C)(=O)=O [Example 7.03, Methanesulfonyl-[6-(2-methyl-imidazol-1-yl)-2,4-dioxo-7-trifluoromethyl-1,4-dihydro-2H-quinazolin-3-yl]-carbamic acid propyl ester]
responders at 50 mg/kg: 40%

Cc1nccn1-c1cc2c(=O)n(N(C(=O)OCC(C)C)S(C)(=O)=O)c(=O)[nH]c2cc1C(F)(F)F [Example 7.04, Methanesulfonyl-[6-(2-methyl-imidazol-1-yl)-2,4-dioxo-7-trifluoromethyl-1,4-dihydro-2H-quinazolin-3-yl]-carbamic acid isobutyl ester]
responders at 50 mg/kg: 40%

CCC(=O)N(n1c(=O)[nH]c2cc(C(F)(F)F)c(-n3cccc3)cc2c1=O)S(C)(=O)=O [Example 8.01, N-(2,4-Dioxo-6-pyrrol-1-yl-7-trifluoromethyl-1,4-dihydro-2H-quinazolin-3-yl)-N-propionyl-methanesulfonamide]
responders at 50 mg/kg: 20%
